Experimental data taken from ChEMBL document CHEMBL1201862, “PubChem BioAssay data set” (2004).
The source made the active and inactive calls.

What was measured:
[1] = inhibitors of intracellular T. cruzi replication, confirmation, NIH3T3 host cells, beta-gal luminescence (AID 2044); format: functional, cell-based;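 note: intracellular parasites grown in NIH/3T3 mouse fibroblasts as host cells; luminescent beta-galactosidase reporter signal from transgenic T. cruzi replicating inside host cells; inhibitors lower the luminescence signal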
[2] = cytotoxicity toward NIH3T3 fibroblasts, dose response, counter-screen, cell-based, ATP luminescence, mouse fibroblasts (AID 2010); format: functional;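 note: cells exposed to compound for about 90 hours before reading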
[3] = NIH-3T3 fibroblast cytotoxicity, dose response, cytotoxicity control, cell-based, fluorescence, Alamar Blue, secondary assay (AID 2327); format: functional;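 note: NIH-3T3 mouse fibroblasts cultured with fluconazole at 8 µg/mL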
[4] = C. albicans growth with fluconazole, confirmation, fluorescence, retest (AID 2467); format: functional, cell-based
[5] = target: T1, Heat shock factor protein 1 (Mus musculus, UniProt P38532); test: inhibition of MG132-induced HSE-luciferase signal, confirmation, cell-based, NIH3T3, luminescence, dose retest (AID 2382); format: functional;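 note: NIH3T3 fibroblasts with HSF1-driven luciferase reporter stressed by proteasome inhibitor MG132; luminescence from HSF1-driven luciferase expression after 8 hours of MG132 stress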
T1 sequence (P38532 whole entry): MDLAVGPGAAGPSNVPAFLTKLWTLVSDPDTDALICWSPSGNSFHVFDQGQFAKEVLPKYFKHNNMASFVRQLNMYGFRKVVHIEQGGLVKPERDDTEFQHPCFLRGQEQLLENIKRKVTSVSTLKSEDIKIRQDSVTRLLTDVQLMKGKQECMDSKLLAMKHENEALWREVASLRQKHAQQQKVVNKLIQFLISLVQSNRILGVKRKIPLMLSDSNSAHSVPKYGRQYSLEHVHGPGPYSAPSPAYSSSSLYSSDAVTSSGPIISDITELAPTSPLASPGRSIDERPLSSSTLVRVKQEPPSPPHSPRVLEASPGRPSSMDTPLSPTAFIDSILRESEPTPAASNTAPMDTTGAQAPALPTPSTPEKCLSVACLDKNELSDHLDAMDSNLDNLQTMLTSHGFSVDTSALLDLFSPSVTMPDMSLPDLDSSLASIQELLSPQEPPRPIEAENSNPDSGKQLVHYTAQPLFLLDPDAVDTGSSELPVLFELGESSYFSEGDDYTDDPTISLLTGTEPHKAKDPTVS

Cytochrome P450 2C19 = Cytochrome P450 2C19 (Homo sapiens, UniProt P33261); test: Cytochrome panel assay with activity outcomes. Panel member name: p450-cyp2c19 Compounds with AC50 equal or less than 10 uM are considered active; format: functional; conditions: read-out: AC50
[6] = system: Streptococcus sp. 'group A'; test: growth inhibition of control SK(-) GAS strain, dose response, counter-screen for streptokinase expression inhibitor project, luminescence, kanamycin, BacTiterGlo, confirmation (AID 1900); format: functional, organism-based
Streptococcus = test: Group A Streptococcus viability loss, dose response, counter-screen for streptokinase expression inhibitor project, luminescence, BacTiterGlo (AID 1915); format: functional, organism-based;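 note: potency for reduction of bacterial viability or growth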
[7] = target: FAD-linked sulfhydryl oxidase ALR (Homo sapiens, UniProt P55789); test: inhibitors of human ALR sulfhydryl oxidase, dose response, biochemical, H2O2 detection, luminescence, cherry-pick (AID 493248)
INS1 = test: beta cell apoptosis inhibitors, cytokine rescue, dose response, luminescence, retest (AID 449756); format: functional, cell-based; conditions: Rattus norvegicus;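 note: cell death triggered by IL-1 beta plus TNF-alpha plus IFN-gamma mixture; protective hits raise ATP signal compared with cytokine alone wells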
[8] = inhibitors of firefly luciferase expression or activity, dose response, H4 neuroglioma cells, luminescence (AID 1990); format: functional, cell-based
[9] = Luminescence Cell-Based Dose Response HTS to Identify Inhibitors of 5'UTR Stem-Loop Driven Prion Protein mRNA Translation in H4 Neuroglioblastoma Cells. [Related pubchem assays: 1827 (Project Summary), 1813 (Primary HTS)]; format: functional
[10] = inhibitors of SNCA 5'UTR-driven reporter translation, confirmation, H4 neuroglioma cells, luminescence (AID 1988); format: functional, cell-based

Sequence of FAD-linked sulfhydryl oxidase ALR (P55789 whole entry): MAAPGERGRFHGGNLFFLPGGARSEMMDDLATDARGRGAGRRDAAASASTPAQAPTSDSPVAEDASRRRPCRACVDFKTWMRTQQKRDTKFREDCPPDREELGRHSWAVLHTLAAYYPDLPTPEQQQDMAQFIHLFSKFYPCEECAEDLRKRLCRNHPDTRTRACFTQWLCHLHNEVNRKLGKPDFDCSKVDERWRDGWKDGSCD
Sequence of Cytochrome P450 2C19 (P33261 whole entry): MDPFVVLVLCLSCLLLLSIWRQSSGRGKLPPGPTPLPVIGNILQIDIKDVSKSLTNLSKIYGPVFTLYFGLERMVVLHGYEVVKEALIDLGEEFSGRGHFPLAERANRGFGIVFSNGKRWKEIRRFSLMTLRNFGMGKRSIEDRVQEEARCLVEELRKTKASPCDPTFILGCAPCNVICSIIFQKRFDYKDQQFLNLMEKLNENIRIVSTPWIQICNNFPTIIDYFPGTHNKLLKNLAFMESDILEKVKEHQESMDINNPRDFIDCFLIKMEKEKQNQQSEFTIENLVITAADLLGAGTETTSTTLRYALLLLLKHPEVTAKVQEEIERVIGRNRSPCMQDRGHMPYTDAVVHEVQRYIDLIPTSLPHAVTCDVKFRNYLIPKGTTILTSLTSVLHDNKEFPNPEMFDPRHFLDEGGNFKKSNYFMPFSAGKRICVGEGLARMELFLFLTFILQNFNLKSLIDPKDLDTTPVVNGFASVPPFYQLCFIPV

Q: Which EC50 [1] does the source give for `O=C(CSc1oc(-c2cccs2)nc1S(=O)(=O)c1ccccc1)NC1CCCCC1` here?
A: 1.13 µM (active)

Q: And the EC50 [2]?
A: > 60 µM (inconclusive)

Q: What does the source list for `NC1=NC(=O)C(Cc2cccc(Cl)c2Cl)S1` (centres undefined)?
A: EC50 [3]: 21.6 µM (inconclusive); EC50 [4]: > 38 µM (not active)

Q: Which EC50 [5] does the source give for `CCOC(=O)N1CCN(c2nc(C)c3c(n2)CCCC3=O)CC1` here?
A: > 195 µM (not active)

Q: With `COc1ccc(CNC(=O)c2ccc(CS(=O)(=O)c3ccc(Br)cc3)o2)cc1` as the molecule, how does the EC50 [5] read?
A: > 195 µM (not active)

Q: With `c1ccc(-n2ncc3c(NCCCN4CCOCC4)ncnc32)cc1` as the molecule, how does the AC50 (Cytochrome P450 2C19) read?
A: 15.8 µM (inconclusive)

Q: With `CCC1=NN2C(=N)/C(=C\c3cccn3-c3ccc(C)c(C)c3)C(=O)N=C2S1` as the molecule, how does the EC50 [6] read?
A: 3.34 µM (active)

Q: What about the EC50 (Streptococcus) of the same molecule?
A: 6.01 µM (active)

Q: For `COc1cc(/C=C2/C(=O)ON=C2C)cc(Cl)c1O`, which AC50 [7] is on record?
A: 16 µM (active)

Q: Which EC50 [3] does the source give for `CCCc1nnc(N=C(S)Nc2ccccc2)s1` here?
A: > 160 µM (inactive)

Q: And the EC50 [4]?
A: 1.09 µM (active)

Q: Which EC50 [5] does the source give for `CS(=O)(=O)Nc1nc2ccccc2[nH]1` here?
A: > 195 µM (not active)

Q: For `CC1=NN(c2ccccc2)C(=O)C1/C=C1/C(=O)NC(=O)N(c2cc(C)cc(C)c2)C1=O` (centres undefined), which AC50 [7] is on record?
A: 1.76 µM (active)

Q: For `COc1ccc(CNC(=O)OCCN2CCN(S(=O)(=O)c3ccc(C)cc3)CCC2=O)cc1`, which EC50 [5] is on record?
A: > 195 µM (not active)

Q: Which EC50 [3] does the source give for `S=C(Nc1ccc(Cl)cc1)Nc1ccc2c(c1)OCCO2` here?
A: > 150 µM (inactive)

Q: What about the EC50 [4] of the same molecule?
A: > 38 µM (not active)

Q: Which EC50 [1] does the source give for `COc1ccc(CCN(C)CCC(=O)Nc2ccc(C)cc2)cc1OC` here?
A: 0.227 µM (active)

Q: And the EC50 [2]?
A: > 60 µM (not active)

Q: With `CCc1ccc(C(=O)NNc2cc(Cl)ccc2Cl)cc1` as the molecule, how does the AC50 (INS1) read?
A: 6.64 µM (active)

Q: For `COc1ccccc1N1CCN(C(S)=Nc2ccc(F)cc2)CC1`, which EC50 [5] is on record?
A: 54.6 µM (active)

Q: For `CCN(CC)S(=O)(=O)c1cc(C)ccc1N=C(S)Nc1cccnc1`, which AC50 (INS1) is on record?
A: 43.2 µM (active)

Q: With `CCN(CC)c1ccc(NC(=O)C2CC3CCC2C3)cc1` (centres undefined) as the molecule, how does the AC50 [7] read?
A: 0.431 µM (active)

Q: For `CCN(CCCNS(=O)(=O)c1ccc2c(c1)CCN2C(C)=O)c1cccc(C)c1`, which AC50 [7] is on record?
A: 2.81 µM (active)

Q: Which EC50 [5] does the source give for `Cc1ccc(S(=O)(=O)CCC(=O)Nc2ccc(Br)cc2)cc1` here?
A: > 195 µM (not active)

Q: Which AC50 [7] does the source give for `O=C(NCC(c1ccco1)N1CCc2ccccc21)c1ccccc1F` (centres undefined) here?
A: 1.67 µM (active)

Q: With `Cc1ccc(NC(S)=NC2CC3CCC(C2)N3Cc2ccco2)cc1C` (centres undefined) as the molecule, how does the EC50 [5] read?
A: > 195 µM (not active)

Q: For `O=C(CCn1c(=S)oc2ccccc21)NC1CCCCCC1`, which EC50 [5] is on record?
A: > 195 µM (not active)

Q: For `O=C(NCc1ccc(C(=O)O)cc1)OCc1ccccc1`, which EC50 [5] is on record?
A: > 195 µM (not active)

Q: Which results are given for `Cc1cccc(Sc2nc(-c3ccccc3)ncc2C(=O)O)c1`?
A: EC50 [3]: 104 µM (active); EC50 [4]: 1.66 µM (active)

Q: Which EC50 [5] does the source give for `COc1ccc(Nc2ncnc3sc(-c4ccccc4)cc23)cc1` here?
A: > 195 µM (not active)

Q: Which EC50 [1] does the source give for `Cc1ccc(C(=O)N(Cc2cccnc2)Cc2cc3cc(C)ccc3n3nnnc23)cc1` here?
A: 1.29 µM (active)

Q: What about the EC50 [2] of the same molecule?
A: > 60 µM (not active)

Q: Which results are given for `Brc1ccc2c(c1)[C@H]1OCC[C@H]1[C@@H](c1cccs1)N2`?
A: EC50 [8]: > 60 µM (not active); EC50 [9]: 17.2 µM (active); EC50 [10]: 13.2 µM (active)

Q: Which AC50 (INS1) does the source give for `COc1ccccc1NS(=O)(=O)c1cccc(NC(=O)c2[nH]c(C)c(C(C)=O)c2C)c1` here?
A: 31.1 µM (active)

Q: Which EC50 [5] does the source give for `Cc1cccc(C(=O)NC(=S)N2CCN(c3ccc([N+](=O)[O-])cc3)CC2)c1` here?
A: > 195 µM (not active)

Q: For `CC(=O)Nc1ccc2c(c1)OCCO2`, which AC50 (Cytochrome P450 2C19) is on record?
A: 17.8 µM (inconclusive)

Q: What does the source list for `CCOC(=O)c1cc(-c2ccccc2)sc1NC(=O)CN1C(=O)NC(CC)(c2ccccc2)C1=O` (centres undefined)?
A: EC50 [1]: 2.17 µM (active); EC50 [2]: > 60 µM (inconclusive)

Q: What does the source list for `COc1ccc(/C=C2\SC(=S)N(CCCC(=O)N3CCN(C)CC3)C2=O)cc1`?
A: EC50 [1]: 1.06 µM (active); EC50 [2]: 8.7 µM (active)
